Assay results published in publication PMC5738580, “Design, Synthesis, and Cytotoxicity Evaluation of Novel Griseofulvin Analogues with Improved Water Solubility” (International Journal of Medicinal Chemistry, 2017).
≈ marks a conversion by molar mass, not a printed value. Read-outs that look alike come from different tables or passages of the source.

Experiments:
[1] = Equilibrium solubility in buffer solutions (UV); type: physicochemical; settings: thermodynamic from solid, 37 °C, read-out: Mean solubility ± SD
Procedure: UV measurements were performed on single beam spectrophotometer (Jenway, model 6305, UK). Equilibrium solubility was performed through using digital precise shaking water bath (DAIHAN Scientific Co., model WSB-45, Republic of Korea).
A powdered sample (20 mg), of each of the tested compounds [3, 5–10, and griseofulvin 1], was accurately weighed and dissolved in 100 ml of methanol to prepare 200 μg/ml stock solution. Compound solutions (20 μg/ml) in the investigated media (buffer solutions of pH 1.2 and 6.8) were prepared from stock solution after appropriate dilution. The prepared solutions were scanned in the UV-Vis region (200–800 nm) to determine the wavelength of maximum absorption (λmax) in each medium.
Solutions containing different concentrations of the investigated compound were prepared from stock solution after appropriate dilution with the investigated buffer solutions. The UV absorbance of the prepared sample solutions was measured at λmax of the investigated compound using the investigated buffer solution as a reference solution (blank). The determined absorbance values were plotted versus the corresponding concentrations to construct the standard calibration curves.
Equilibrium solubility of each of the tested compounds was determined by placing an excess amount of the compound in stoppered glass volumetric flask containing 10 ml of the investigated buffer solution. The solutions were shaken at a rate of (40 ± 2) stroke/minute in a thermostatically controlled water bath at 37 ± 0.5°C for 24 hours to ensure equilibrium. Samples of 2 ml were withdrawn from each test solution, filtered immediately, and assayed spectrophotometrically at the determined λmax of the investigated compound.

[2] = tested on: MCF-7 cells; assay: SRB cytotoxicity assay, MCF-7; type: cell-based; settings: Homo sapiens, MCF7, read-out: IC50 against MCF-7
Procedure: (§1) Breast carcinoma MCF-7 and colorectal cancer HCT116 cell lines were used in this study. Cancer cell lines were obtained frozen in liquid nitrogen (−180°C) from the American Type Culture Collection (ATCC). The tumor cell line was maintained by serial subculturing in RPMI 1640 media containing 10% […] at the National Cancer Institute, Cairo, Egypt.
(§2) Cytotoxicity assay was carried out according to the reported literature, where the sensitivity of the MCF-7 and HCT116 cell lines to the tested compounds and their combination was determined by the SRB assay. In brief, cells were seeded at a density of 3 × 10^3 cells/well in 96-well microtiter plates. Cells were left to attach for 24 hours before incubation with drugs. Next, they were treated with different concentrations of the tested compounds (10, 20, 30, 40, 50, and 100 μM).
(§3) Control cells containing 200 μl/well of DMSO (0.1% v/v) were used similarly. At the end of incubation, cells were fixed with 20% trichloroacetic acid (TCA), stained with 0.4% Sulforhodamine B (SRB), and rinsed with 1% acetic acid. The bound protein stain was solubilized with Tris base (10 mM, pH 10.5) and the optical density (OD) of each well was measured spectrophotometrically at 570 nm using ELISA microplate reader (TECAN, Sunrise^TM, Germany). The fraction of cell survival was calculated as follows.
(§4) Survival fraction = OD treated/OD control. […] Each experiment was repeated 3 times.

[3] = tested on: HCT116 cells; assay: SRB cytotoxicity assay, HCT116; type: cell-based, human; settings: for IC50: Homo sapiens, HCT-116, read-out: IC50 against HCT116
Procedure: as §1, §2, §3, §4

[4] = tested on: centrosomal clustering; parameters: method as in PMID 22191585, PMID 19402668; settings: cited from earlier work
[5] = tested on: HCT116 cells; assay: Combination of compound 9 with 5-fluorouracil (SRB, combination index); type: cell-based, human
Procedure: (§5) Estrogen-dependent breast cancer represents 70% of all types of breast cancer. […] Combination therapy is used in order to prevent resistance or recurrence. […] Similar study was performed for evaluation of combination effect of compound 9 with 5-fluorouracil on HCT116 cells proliferation (Figure 1).
as §2
(§6) CI was employed to determine whether the compounds interacted synergistically, additively, or antagonistically. […] If “CI” is less than 1, the effect of combination is synergistic, whereas if CI = 1 or >1, the effect is additive or antagonistic, respectively.

[6] = tested on: MCF-7 cells; assay: Combination of compound 9 with tamoxifen (SRB, combination index); type: cell-based, human
Procedure: as §5, §2, §6

[7] = tested on: MCF-7 cells; assay: Apoptosis, Annexin V-FITC/PI flow cytometry; type: cell-based, human; settings: MCF-7, 21.5 μM, 48 hrs
Procedure: In order to study the effect of compound 9 on apoptosis, MCF-7 cells were treated with compound 9 (21.5 μM) for 48 hrs and harvested for fluorescence microscopic and flow cytometric analysis of Annexin V-FITC/propidium iodide (PI) staining. […] The percentage of apoptotic cells was 2.65% in control untreated MCF-7 cells and 31.75% after treatment with compound 9.
In brief, untreated and treated MCF-7 cells (21.5 μM of 9) were harvested and resuspended in calcium buffer at a concentration of 1 × 10^6 cells/ml. Annexin V-FITC (10 μl) was added to 100 μl of cells. The tubes were incubated for 20 min in the dark. The cells were then washed with calcium buffer and propidium iodide (10 μl) was added to each tube and incubated for at least 10 min on ice. Samples were analyzed by FACScan flow cytometer (Becton-Dickinson, San Jose, CA, USA) using CellQuest software (Becton-Dickinson, San Jose, CA).

[8] = buffer solution pH 1.2, simulated gastric fluid, pH 1.2 buffer solution
[9] = buffer solution pH 6.8, aqueous buffer, pH 6.8 buffer solution

Row | solubility at 24 h [1, 8] [µg/mL] | solubility at 24 h [1, 9] [µg/mL] | Structure (SMILES) | IC50 [2] [µM] | IC50 [3] [µM] | increase in activity as a centrosome clustering inhibitor compared to 1 [4] [fold] | combination index (CI) ([5]; half of IC50 of compound 9 + quarter of IC50 of 5-fluorouracil) | combination index (CI) ([5]; quarter of IC50 of compound 9 + half of IC50 of 5-fluorouracil) | increase in activity over 5-fluorouracil against HCT116 [3] [fold] | combination index (CI) ([6]; half of IC50 of compound 9 + quarter of IC50 of tamoxifen) | combination index (CI) ([6]; quarter of IC50 of compound 9 + half of IC50 of tamoxifen) | percentage of apoptotic cells [7] [%]
1 | 14.3 ± 0.42 | 27.94 ± 0.27 | COc1cc(OC)c2c(c1Cl)O[C@]1(C2=O)C(OCc2ccccc2)=CC(=NOCC(=O)O)C[C@H]1C (mixture of isomers) [Compound 5, 2-(((E/Z)-[(2S,6′R)2′-Benzyloxy-7-chloro-4,6-dimethoxy-6′-methyl-3-oxo-3H-spiro[benzofuran-2,1′-cyclohex[2′]en]-4′-ylidene]amino)oxy) Acetic Acid] | 20.7 | > 100 | – | – | – | – | – | – | –
2 | 14.86 ± 0.12 | 14.5 ± 0.39 | COC1=CC(=NNC(N)=O)C[C@@H](C)[C@]12Oc1c(Cl)c(OC)cc(OC)c1C2=O (mixture of isomers) [Compound 6, (E/Z)-2-((2S,6′R)-7-Chloro-2′,4,6-trimethoxy-6′-methyl-3-oxo-3H-spiro[benzofuran-2,1′-cyclohex[2′]en]-4′-ylidene)hydrazine-1-carboxamide] | 55.9 | 87.8 | – | – | – | – | – | – | –
3 | 29.1 ± 0.72 | 12.5 ± 0.54 | COC1=CC(=NNC(=O)c2ccncc2)C[C@@H](C)[C@]12Oc1c(Cl)c(OC)cc(OC)c1C2=O (mixture of isomers) [Compound 8, (E/Z)-N′-((2S,6′R)-7-Chloro-2′,4,6-trimethoxy-6′-methyl-3-oxo-3H-spiro[benzofuran-2,1′-cyclohex[2′]en]-4′-ylidene)isonicotinic Acid Hydrazide] | 25.3 | 39.8 | – | – | – | – | – | – | –
4 | – | – | O=c1[nH]cc(F)c(=O)[nH]1 [5-Fluorouracil, reference compound] | – | 19.5 | – | – | – | – | – | – | –
5 | 12.3 ± 0.29 (≈ 34.9 µM) | 12.4 ± 0.26 (≈ 35.1 µM) | COC1=CC(=O)C[C@@H](C)[C@]12Oc1c(Cl)c(OC)cc(OC)c1C2=O [Compound 1, Griseofulvin] | 69 | 35.5 | – | – | – | – | – | – | –
6 | 11.1 ± 0.37 (≈ 26 µM) | 11.1 ± 0.82 (≈ 25.9 µM) | COc1cc(OC)c2c(c1Cl)O[C@]1(C2=O)C(OCc2ccccc2)=CC(=O)C[C@H]1C [Compound 3, (2S,6′R)-2′-Benzyloxy-7-chloro-4,6-dimethoxy-6′-methyl-3H-spiro[benzofuran-2,1′-cyclohex[2′]en]-3,4′-dione, reference compound] | 32.8 | 35.8 | 25 | – | – | – | – | – | –
7 | – | – | COC1=CC(=NNC(=N)N)C[C@@H](C)[C@]12Oc1c(Cl)c(OC)cc(OC)c1C2=O [Compound 7, 2-((2S,6′R)-7-Chloro-2′,4,6-trimethoxy-6′-methyl-3-oxo-3H-spiro[benzo-furan-2,1′-cyclohex[2′]en]-4′-ylidene)hydrazine-1-carboximidamide] | 54.5 | 85.6 | – | – | – | – | – | – | –
8 | 14 ± 0.31 (≈ 28.7 µM) | 13.78 ± 0.07 (≈ 28.4 µM) | COc1cc(OC)c2c(c1Cl)OC1(C2=O)C(OCc2ccccc2)=CC(=NNC(N)=O)CC1C [Compound 9, 2-((2S,6′R)-2′-Benzyloxy-7-chloro-4,6-dimethoxy-6′-methyl-3-oxo-3H-spiro[benzofuran-2,1′-cyclohex[2′]en]-4′-ylidene)hydrazine-1-carboxamide] | 21.5 | 10.5 | – | 0.37 ± 0.07 | 0.2 ± 0.06 | 2 | 0.25 ± 0.03 | 0.17 ± 0.06 | 31.75
9 | 26.7 ± 0.57 (≈ 55 µM) | 16.6 ± 0.58 (≈ 34.2 µM) | COc1cc(OC)c2c(c1Cl)OC1(C2=O)C(OCc2ccccc2)=CC(=NNC(=N)N)CC1C [Compound 10, 2-((2S,6′R)-2′-Benzyloxy-7-chloro-4,6-dimethoxy-6′-methyl-3-oxo-3H-spiro[benzofuran-2,1′-cyclohex[2′]en]-4′-ylidene)hydrazine-1-carboximidamide] | 14.5 | 8.39 | – | – | – | 2 | – | – | –
